Reference: publication PMC4827351 (Chemical Science, 2015)

What was measured:
[1] = Sedimentation velocity analytical ultracentrifugation; assay type: physicochemical; details: SV-AUC; for s20,w: 42 000 rpm, 20 °C, A280, DCDT+; for MW (best-fit molecular mass) / D: DCDT+
Method: The experiments were set up as previously reported.[15] In one set of experiments, 10× concentrated proHD6 solutions in Milli-Q water (≈40 μL) were transferred to microcentrifuge tubes and lyophilized to dryness. […] The pH of each solution was measured to confirm that it remained unchanged. The samples were centrifuged at 42 000 rpm and 20 °C until sedimentation was complete. The absorption wavelength for optical detection was 280 nm. All SV experiments were conducted with at least two independently prepared and purified samples of each peptide and in at least two independent trials.
Additional SV experiments were conducted to evaluate the effect of buffer components on the sedimentation of proHD6. In all cases, the proHD6 samples (400 μL) were prepared as described above except that proHD6 was dissolved in 10 mM Tris–HCl or HEPES pH 7.4 to obtain a final peptide concentration of 50 μM.
The experimental sedimentation coefficients were calculated by fitting the time derivative of the sedimentation velocity (–dc/dt) data using DCDT+.[29],[54] The –dc/dt distribution was generated from 22 to 28 scans with a peak broadening limit of 40 kDa by using DCDT+.
Table S4. Calculated sedimentation coefficients of proHD6.a
Concentration Buffer pH s20,w (S) D (F) MW (kDa) Partial Specific
(µM) (10 mM) Volume (mL/g) […]
a All samples were prepared in the indicated buffer; NaP is sodium phosphate. The temperature was 20 °C. Data were obtained by analysis with the dc/dt method implemented in DCDT+ using 22- 28 scans with 40 kDa diffusion broadening maximum. Sedimentation coefficients are s20,w values, adjusted with a solvent density (ρ) of 0.99967 g/mL and a solvent viscosity (η) of 1.0061 cP. Viscosity units are in centipoise (cP) (1 poise = 1 gŸ[…]cm-1Ÿ[…]s-1). Sedimentation coefficients are in svedbergs (1 svedberg = 100 fs = 1 x 10-13 s). Diffusion coefficients correspond to the best-fit molecular mass in Fick units (1 Fick = 1 x 10-7 cm2/s). HEPES has a solvent density (ρ) of 0.99901 g/mL and a solvent viscosity (η) of 1.0104 cP at 20 °C. Tris-HCl has a solvent density (ρ) of 0.99851 g/mL and a solvent viscosity (η) of 1.0037 cP at 20 °C. The solvent densities, viscosities, and the partial specific volume values of proHD6 monomer and dimer were […]

[2] = Sedimentation equilibrium analytical ultracentrifugation; assay type: physicochemical; details: 10 mM sodium phosphate; for MW (sedimentation equilibrium, SEDPHAT): pH 7.4, 20 °C, global fit
Method: Sedimentation equilibrium (SE) experiments were performed to determine the molecular weight of proHD6. The proHD6 samples were prepared as described in the SV experiments with modification. In a typical set of experiments, proHD6 solutions in Milli-Q water (≈100 μL) prepared in microcentrifuge tubes were lyophilized to dryness. An aliquot (110 μL, pre-filtered, 0.22 μm filter) of 10 mM sodium phosphate buffer adjusted to pH 7.4 was added to each tube to afford solutions with varying concentrations of proHD6 (30, 60, and 120 μM) and transferred to AUC sample cells. The pH of each solution was measured to confirm that each solution remained at pH 7.4. Based on the sedimentation coefficients obtained from the SV experiments, equilibrium profiles were obtained at rotor speeds of 30 000, 36 000, and 42 000 rpm. Once equilibrium was established, two scans with five replicates were recorded. The absorption wavelength for optical detection was 280 nm, and the instrument was maintained at 20 °C.
The details of the experimental setup and data analysis are reported elsewhere.[52] SEDNTERP[53] was employed to calculate the buffer viscosity (η), buffer density (ρ), and the partial specific volume (value of proHD6 at 20 °C) as described in the SV section. The molecular weight of proHD6 was determined by global fitting of the multispeed equilibrium data across all loading concentrations at pH 7.4 using SEDPHAT.[31] The Species Analysis model with mass conservation was employed for data analysis. The bottom of the sample sector was assigned as a floating parameter. To further evaluate whether each least-squares curve-fitting procedure converged to a global minimum, the alternate methods of Simplex, Marquardt–Levenberg, and simulated annealing were employed to assess any change in the global reduced chi-squared value.
Table S5. Molecular weight fitting of SE data for proHD6 by using SEDPHAT.a 95% Confidence Standard Global Reduced Critical Chi-Squared
Sample MW (Da) Intervalb Deviationb Chi-Squared Valuec […]
a All samples were in 10 mM sodium phosphate, pH 7.4. Global fitting used partial specific volume (v) at 20 °C, a solvent density ( ρ) of 0.99967 g/mL, and a solvent viscosity (η) of 1.0061 cP. Viscosity units are in centipoise (cP) (1 poise = 1 gŸ[…] cm-1Ÿ[…]s-1). b Calculated from 1000 iterations of Monte-Carlo analysis. c Calculated at a 95% confidence level.

[3] = proHD6 30 µM, 10 mM NaP pH 7.4, first 30 µM line
[4] = proHD6 30 µM, 10 mM NaP pH 7.4, second 30 µM line
[5] = proHD6 30 µM, 10 mM NaP pH 7.4, third 30 µM line
[6] = proHD6 50 µM, 10 mM HEPES pH 7.4
[7] = proHD6 50 µM, 10 mM NaP pH 7.4, first 50 µM line
[8] = proHD6 50 µM, 10 mM NaP pH 7.4, second 50 µM line
[9] = proHD6 50 µM, 10 mM Tris-HCl pH 7.4
[10] = proHD6 100 µM, 10 mM NaP pH 7.4
[11] = proHD6 120 µM, 10 mM NaP pH 7.4
[12] = proHD6 140 µM, 10 mM NaP pH 7.4

Sequence: EPLQAEDDPLQAKAYEADAQEQRGANDQDFAVSFAEDASSSLRALGSTRAFTCHCRRSCYSTEYSYGTCTVMGINHRFCCL (disulfide (positions not given here)) [proHD6, 81-residue propeptide of human α-defensin 6, recombinant, from His6-SUMO-proHD6]
- s20,w [1, 3]: 1.727 S
- s20,w [1, 4]: 1.798 S
- s20,w [1, 5]: 1.733 S
- s20,w [1, 6]: 1.763 S
- s20,w [1, 7]: 1.844 S
- s20,w [1, 8]: 1.865 S
- s20,w [1, 9]: 1.783 S
- s20,w [1, 10]: 1.843 S
- s20,w [1, 11]: 1.769 S
- s20,w [1, 12]: 1.751 S
- MW (best-fit molecular mass) [1, 3]: 14.3 kDa
- D ([1]; proHD6 30 µM, 10 mM NaP pH 7.4, first 30 µM line, 1 Fick = 1 x 10-7 cm2/s): 9.83 F
- D [1, 4]: 11.5 F
- MW (best-fit molecular mass) [1, 4]: 12.8 kDa
- D [1, 5]: 9.73 F
- MW (best-fit molecular mass) [1, 5]: 14.5 kDa
- D [1, 6]: 9.94 F
- MW (best-fit molecular mass) [1, 6]: 14.4 kDa
- D [1, 7]: 10.4 F
- MW (best-fit molecular mass) [1, 7]: 14.4 kDa
- D [1, 8]: 10.3 F
- MW (best-fit molecular mass) [1, 8]: 14.8 kDa
- D [1, 9]: 8.97 F
- MW (best-fit molecular mass) [1, 9]: 16.1 kDa
- D [1, 10]: 13.8 F
- MW (best-fit molecular mass) [1, 10]: 10.9 kDa
- D [1, 11]: 9.16 F
- MW (best-fit molecular mass) [1, 11]: 15.7 kDa
- D [1, 12]: 9.47 F
- MW (best-fit molecular mass) [1, 12]: 15.0 kDa
- molecular weight in solution (sedimentation equilibrium, global analysis) ([2]; pH 7.4, 20 °C, 30, 60, 120 µM proHD6, 30 000/36 000/42 000 rpm, A280, SEDPHAT, SD ±230 Da, 95% interval 15 059-15 946 Da): 15 549 Da
- MW (sedimentation equilibrium, SEDPHAT) ([2]; Sample 1): 15176 Da
- MW (sedimentation equilibrium, SEDPHAT) ([2]; Sample 2): 15351 Da
- MW (sedimentation equilibrium, SEDPHAT) ([2]; Sample 3): 15549 Da
